# Source: US6518301B1, “Estrogen receptor-β ligands” (AstraZeneca AB, priority 1999, dated 2003)
# Read-outs that look alike come from different tables or passages of the source.
# Tests used:
# [1] = molecular target: T1, ER-β (Gen Bank Accession #X99101) (Homo sapiens, UniProt Q92731); experiment: Estrogen receptor binding, competition with [125I]-estradiol, ER-β
# T1 construct: made in house; host or cells: in vitro transcription/translation, TNT T7 Quick-Coupled reticulocyte lysate (Promega Cat.#L1170)
# Experimental: (§1) The ability of a compound to bind to ER was measured by its ability to compete for binding with the radio-labeled estrogen.
# (§2) Receptor protein was prepared by in vitro transcription and translation of these plasmids using the TNT T7 Quick-Coupled reticulocyte lysate system (Promega Cat.#L1170). […] Programmed lysate was then aliquotted and stored frozen at −80° C.
# (§3) Compounds were prepared as 1 mM stocks in DMSO, then diluted in the binding-assay buffer (in mM: 20 HEPES, 150 NaCl, 1 EDTA, 6 monothioglycerol and 10 Na2MoO4; 10% wt/vol glycerol, and pH =7.9) to a series of three-fold concentrated, 20 μL aliquots in a 96-well plate. Receptor aliquots were thawed on ice, and appropriately diluted (see below) in binding assay buffer. Diluted receptor (30 μL/each) was added to each well. […] Plates containing the final assay mixture were mixed on a shaker for 2 min and incubated overnight (˜16 h) at 4° C.
# (§4) Receptor-bound and unbound radioligand was separated by filtration over sephadex columns. Columns (45 μL bed volume) were prepared by adding dry column media (Pharmacia Cat#G-25) to 96-well column templates (Millipore MultiScreen Plates Cat#MAHVN4510). Columns were then saturated with 300 μL of binding-assay buffer and stored at 4° C. Prior to use, stored columns were spun for 10 minutes at 2000 RPM, then washed twice with 200 μL of fresh binding buffer. The binding-assay mixtures (50 μL/each) were then applied to the columns, and an additional elution volume of 35 μL was immediately applied to the column. Receptor-bound radioligand was then cluted from the column by centrifugation for 10 minutes at 2000 RPM. A scintillation cocktail (145 μL) was added to the eluted radioligand/receptor complex, and radio-label was measured by liquid scintillation counting.
# [2] = molecular target: T2, ER-α (Gen Bank Accession #M12674) (Homo sapiens, UniProt P03372); experiment: Estrogen receptor binding, competition with [125I]-estradiol, ER-α
# T2 construct: made in house; host or cells: in vitro transcription/translation, TNT T7 Quick-Coupled reticulocyte lysate (Promega Cat.#L1170)
# T2 sequence (P03372 1-595): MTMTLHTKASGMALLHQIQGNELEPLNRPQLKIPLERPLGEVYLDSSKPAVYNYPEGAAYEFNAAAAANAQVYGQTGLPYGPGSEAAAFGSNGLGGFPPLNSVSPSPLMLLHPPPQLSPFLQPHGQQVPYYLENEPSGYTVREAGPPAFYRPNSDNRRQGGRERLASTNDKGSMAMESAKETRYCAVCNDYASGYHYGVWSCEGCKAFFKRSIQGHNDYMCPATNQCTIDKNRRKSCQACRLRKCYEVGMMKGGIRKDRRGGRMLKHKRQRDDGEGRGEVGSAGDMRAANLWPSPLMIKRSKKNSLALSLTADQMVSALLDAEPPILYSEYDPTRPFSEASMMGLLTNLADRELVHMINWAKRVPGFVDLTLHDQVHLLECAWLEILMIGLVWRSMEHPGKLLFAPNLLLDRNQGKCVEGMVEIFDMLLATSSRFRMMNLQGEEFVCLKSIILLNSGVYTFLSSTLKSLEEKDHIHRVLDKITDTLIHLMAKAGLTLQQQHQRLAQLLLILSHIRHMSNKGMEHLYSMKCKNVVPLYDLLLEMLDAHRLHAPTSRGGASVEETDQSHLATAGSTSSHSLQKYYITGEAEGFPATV
# Experimental: as §1, §2, §3, §4
# ER = experiment: Scatchard analysis of ligand binding affinity on receptor preparation; conditions: Scatchard analysis at receptor dilutions giving reported Kis and signal:noise ~10; subtype not specified; read-out: KD for [125I]-estradiol
# Experimental: The volume of receptor-programmed reticulocyte lysate to be added to the binding assay was determined independently from two measurements made on each batch of receptor prepared. First, Kis were determined for standard compounds using a series of dilutions of the receptor preparation. Scatchard analysis of ligand binding affinity was performed at the receptor dilutions that produced reported Kis for these compounds and an acceptable signal:noise ratio (˜10).
# [3] = competition with 150 pM [125I]-estradiol, receptor-programmed reticulocyte lysate, overnight at 4° C., Cheng-Prushoff from IC50, read-out: ER-β Ki
# [4] = competition with 150 pM [125I]-estradiol, receptor-programmed reticulocyte lysate, overnight at 4° C., Cheng-Prushoff from IC50, read-out: ER-α Ki
# T1 sequence (Q92731 54-530 limits assumed): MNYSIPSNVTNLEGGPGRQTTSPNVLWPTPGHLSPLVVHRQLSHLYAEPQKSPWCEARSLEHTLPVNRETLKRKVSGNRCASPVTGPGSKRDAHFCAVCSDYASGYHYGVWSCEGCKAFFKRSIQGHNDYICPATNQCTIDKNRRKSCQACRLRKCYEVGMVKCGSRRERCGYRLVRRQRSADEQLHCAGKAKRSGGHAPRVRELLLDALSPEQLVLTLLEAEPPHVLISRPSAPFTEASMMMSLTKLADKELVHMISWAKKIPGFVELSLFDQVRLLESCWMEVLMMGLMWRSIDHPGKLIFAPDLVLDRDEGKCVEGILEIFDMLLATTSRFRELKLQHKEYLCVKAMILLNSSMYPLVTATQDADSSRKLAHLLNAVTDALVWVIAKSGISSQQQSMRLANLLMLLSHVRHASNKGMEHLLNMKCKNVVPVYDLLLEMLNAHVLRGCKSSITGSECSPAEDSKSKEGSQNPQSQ
Compound,"Ki [1, 3]","Ki [2, 4]",Kd (ER),Ki [1],Ki [2]
O=c1c(-c2ccc(O)cc2Cl)coc2cc(O)cc(O)c12 [Compound No. 2],0.55 nM,56 nM,,,
"Cc1c(-c2ccc(O)cc2)c(=O)oc2cc(O)ccc12 [Compound No. 28, 3-(4-hydroxyphenyl)-7-hydroxy-4-methylcoumarin]",12 nM,322 nM,,,
"CC12CCC3c4ccc(O)cc4CCC3C1CC([125I])C2O (stereo not drawn) [[^125I]-estradiol, [^125I]-16α-iodo-3,17β-estradiol]",,,0.1 to 1 nM,,
O=c1c(-c2ccc(O)c(O)c2)coc2cc(O)cc(O)c12 [compound 1],2.15 nM,605 nM,,,
Cc1cc(O)ccc1-c1coc2cc(O)cc(O)c2c1=O [compound 3],1.2 nM,61 nM,,,
O=c1c(-c2ccc(O)c(F)c2)coc2cc(O)cc(O)c12 [compound 4],0.5 nM,74 nM,,,
O=c1c(-c2ccc(O)c(Cl)c2)coc2cc(O)cc(O)c12 [compound 5],1.2 nM,1100 nM,,,
"O=c1c(-c2ccc(O)c(Br)c2)coc2cc(O)cc(O)c12 [compound 6, (3-Bromo-4-hydroxyphenyl)-5,7-dihydroxy-4H-1-benzopyran-4-one]",1.25 nM,439 nM,,,
C=CCc1cc(-c2coc3cc(O)cc(O)c3c2=O)ccc1O [compound 7],3.2 nM,> 3000 nM,,,
CCCc1cc(-c2coc3cc(O)cc(O)c3c2=O)ccc1O [compound 8],0.75 nM,> 3000 nM,,,
COc1cc(-c2coc3cc(O)cc(O)c3c2=O)ccc1O [compound 9],143 nM,> 3000 nM,,,
Cc1cc(-c2coc3cc(O)cc(O)c3c2=O)cc(C)c1O [compound 10],25 nM,> 3000 nM,,,
O=c1c(-c2ccc(F)cc2)coc2cc(O)cc(O)c12 [compound 11],100 nM,> 3000 nM,,,
O=c1c(-c2ccc3c(c2)OCO3)coc2cc(O)cc(O)c12 [compound 12],22 nM,> 3000 nM,,,
Nc1ccc(-c2coc3cc(O)cc(O)c3c2=O)cc1 [compound 13],6 nM,> 3000 nM,,,
O=c1c(-c2ccc3ccccc3c2)coc2cc(O)cc(O)c12 [compound 14],150 nM,> 3000 nM,,,
O=c1c(-c2cccc(O)c2)coc2cc(O)cc(O)c12 [compound 15],15 nM,900 nM,,,
O=c1c(-c2ccccc2O)coc2cc(O)cc(O)c12 [compound 16],110 nM,> 3000 nM,,,
O=c1c(-c2cccs2)coc2cc(O)cc(O)c12 [compound 17],3.3 nM,> 3000 nM,,,
O=c1c(-c2ccsc2)coc2cc(O)cc(O)c12 [compound 18],17 nM,> 3000 nM,,,
O=c1c(-c2ccc3ccccc3n2)coc2cc(O)cc(O)c12 [compound 19],122 nM,> 3000 nM,,,

Compound,"Ki [1, 3]","Ki [2, 4]",Kd (ER),Ki [1],Ki [2]
O=c1c(-c2ccc(Br)cc2)coc2cc(O)cc(O)c12 [compound 20],25 nM,> 3000 nM,,,
O=c1c(-c2ccc(Cl)cc2)coc2cc(O)cc(O)c12 [compound 21],42 nM,> 3000 nM,,,
COc1cc(O)c2c(=O)c(-c3ccc(O)cc3)coc2c1 [compound 22],,,,50 nM,> 3000 nM
Cc1cc(O)cc2occ(-c3ccc(O)cc3)c(=O)c12 [compound 23],0.5 nM,200 nM,,,
O=c1c(-c2ccc(O)c(F)c2)coc2cc(O)ccc12 [compound 24],3.3 nM,> 3000 nM,,,
O=c1c(-c2ccc(O)cc2)c(C(F)(F)F)oc2cc(O)ccc12 [compound 25],10 nM,321 nM,,,
O=C1c2c(O)cc(O)cc2OCC1c1ccc(O)cc1 (stereo not drawn) [compound 26],3.7 nM,1000 nM,,,
O=C1c2c(O)cc(O)cc2CCC1c1ccc(O)cc1 (stereo not drawn) [compound 27],5.7 nM,,,,
CCc1c(-c2ccc(O)cc2)c(=O)oc2cc(O)ccc12 [compound 29],4 nM,80 nM,,,
COc1c(O)cc(O)c2c(=O)c(-c3ccc(O)cc3)coc12 [compound 32],33 nM,> 3000 nM,,,
O=c1c(-c2ccccc2F)coc2cc(O)cc(O)c12 [compound 33],50 nM,> 3000 nM,,,
O=c1c(-c2ccccc2)c(-c2ccccc2)oc2cc(O)cc(O)c12 [compound 34],9.5 nM,95 nM,,,
O=c1c(-c2ccccc2)c(-c2ccccc2)oc2cc(O)ccc12 [compound 35],19 nM,50 nM,,,
O=c1cc(-c2ccc(O)cc2)oc2ccc(O)cc12 [compound 36],0.33 nM,88 nM,,,
O=C1CC(c2ccc(O)cc2)Cc2ccc(O)cc21 (stereo not drawn) [compound 37],0.73 nM,75 nM,,,
O=c1oc2cc(O)ccc2cc1-c1ccc(O)cc1 [compound 38],4.9 nM,220 nM,,,
O=c1oc2cc(O)cc(O)c2cc1-c1ccc(O)cc1 [compound 39],79 nM,> 3000 nM,,,
O=c1oc2ccc(O)cc2cc1-c1ccc(O)cc1 [compound 41],4.6 nM,,,,
Cc1c(-c2ccc(Cl)cc2)c(=O)oc2cc(O)ccc12 [compound 42],51 nM,> 3000 nM,,,
Cc1c(-c2ccc(O)cc2)c(=O)oc2c(C)c(O)ccc12 [compound 43],24 nM,500 nM,,,
Oc1ccc(C2COc3cc(O)ccc3C2)cc1 (stereo not drawn) [compound 46],2 nM,155 nM,,,
